Data on one sequence can be found in patent US20100255020A1, “METHOD FOR INDUCING CYTOTOXIC T-CELLS, CYTOTOXIC T-CELL INDUCERS, AND PHARMACEUTICAL COMPOSITIONS AND VACCINES EMPLOYING THEM” (NEC CORPORATION, priority 2007, published 2010).

One data set has as its target HLA-A*0201 molecule (Homo sapiens, UniProt P04439, D140Y/D185E/D98H/E176V/E277Q/G131W/G231S/I119V/I121R/I166T/I218V/L300P/L318F/N151K/N90K/P208A/P217A/Q86G/Q94H/R138H/R169H/T345S). The data set can be described thus: Peptide binding to HLA-A*0201 molecule on JY cells (flow cytometry, Kd). As to conditions: HLA-A*0201, JY cells. The procedure: The ability of a peptide to bind to an HLA-A*0201 molecule, which is a product of the HLA-A*0201 gene, was measured using strain JY cells expressing the HLA-A*0201 molecule.
JY cells were first exposed to acidic conditions at a pH of 3.8 for 30 seconds, thus dissociating and removing a β2m light chain and an endogenous peptide, which were noncovalently associated with the HLA-A* 0201 molecule. After neutralization, a reconstitution experiment was carried out.
The above-mentioned JY cells and the purified […] were added to serial dilutions of peptide for which the binding ability needs to be measured, and incubation was carried out on ice for 4 hours. HLA-A*0201 molecules that had reassociated up to this time point were stained using the fluorescently-labeled monoclonal antibody BB7.2, a conformation dependent monoclonal Ab specific for an assembled form of HLA-A*0201 molecule.
Subsequently, the amount of fluorescence per cell was measured using a flow cytometer and a dissociation constant Kd value was calculated by a method published in the literature (Udaka et al., Immunogenetics, 51, 816-828, 2000).
In general terms: In flow cytometry, cells or beads pass a laser one at a time.

The conditions of data set [1]: human, in vivo.
In data set [2] the test system is prostate-specific antigen (PSA). The data set can be described thus: Prostate tumor marker PSA during W10 peptide immunotherapy. Format: in vivo, human. As to the method: After the gradual increase the dose was fixed to 3 mg of W10 peptide+Wc and immunotherapy was continued. […] The day when 1 mg of W10 peptide on its own was first administered was presented as day 0. Arrows with dotted line indicates the period when 3 mg of W10 without Wc was injected for safety test (W10). The period where Wc was further added to W10 is also indicated with arrows with solid line (W10+Wc). […] Therefore, osteolytic lesions were measured as the size of tumors. […] Around May 2008, PSA gradually started to increase again, and pain started in the right femur. From the end of July 2008, a taxotere+Predonin therapy was started. W10+Wc immunotherapy was continued along with chemotherapy.
Immunotherapy was started with 3 mg W10 peptide while monitoring safety, then dose escalation was put forward with W10 peptide 1 mg+Wc, followed by 3 mg of W10 peptide+Wc. Eventually, the dose was fixed at this level and weekly immunization was continued. […] The day the immunization was started with 3 mg of W10 without Wc was set as day 0. […] For about half a year, PSA was stable at less than 0.1 (FIG. 14 a). […] When the immunotherapy was resumed, PSA decreased. After this incident, PSA started to show gradual increase. […] The size of a pubic bone metastatic tumor has been maintained within SD for 37 weeks on the RECIST standard so far (FIG. 14 b). […]

Data set [3] concerns peptide-loaded target cells (C1R-A24, RA24, T2). The data set can be described thus: 51Cr release assay of PBMC killing activity against peptide-loaded target cells. The data set is classed as cell-based, human. As to the method: Target cells were labeled with ^51Cr and loaded with HLA-binding peptide of interest. 5,000 or 10,000 cells/well of target cells were placed in 96-well U-bottom plate, and then, PBMCs having been stimulated twice in vitro were added thereto as a responder. Cells were incubated at 37° C. for 5 hours and ^51Cr released from the damaged cells during the incubation was measured, and % specific lysis was calculated. As target cells C1R-A24 or RA24 cells were used as a target when reactivity to HLA-A*2402 binding peptides were examined, and T2 cells were used as a target and incubation was carried out for 2 hours after addition of responder cells. Percent specific lysis was calculated as follows. % specific lysis=(test release-spontaneous release)/(total release-spontaneous release)×100.

In data set [4] the test system is W10-specific CD8 positive T cells. Briefly: HLA-A24 tetramer flow cytometry of peptide-specific T cells. Format: cell-based, human. The following applies: patient KB07-006, PBMCs incubated with W10 peptide. The procedure: HLA-A24 tetramer was prepared by modifying a method by Altman et al. (Altman, J D, Moss, P A., Goulder, P J, Barouch, D H, McHeyzer-Williams, M G, Bell, J I, McMichael, A J, Davis, M M. Phenotypic analysis of antigen-specific T lymphocytes. Science […] 274, 94-96.)
HLA-A24 tetramer was prepared by expressing an HLA-A*2402 molecule in E. coli and W10 peptide was bound thereto. Furthermore, the C-terminus of the complex was modified by a site-specific biotinyltion. The product was then complexed with streptavidin (SA), giving rise to a molecular assembly consisting of 4 molecules of W10-bound HLA-A*2402 molecules and 1 SA.
Here in this assay, T cells specific for a HLA-A24-W10 complex was fluorescently labeled with […] (phycoerythrin) conjugated SA and antigen specific T cells were identified by flow cytometry.
cDNAs of HLA-A*2402, which is an H-chain constituting an HLA-A*2402 molecule, and human β2m 02-microglobulin) which is a light chain, were inserted into a pET-21d+vector (Novagen, Merck) under T7 promoter, respectively. The resultant vector was introdyced into E. coli BL21 (DE3) pLysS, and expression of the gene was induced using IPTG. […]
This HLA-A*2402-W10 monomer was associated with PE-labeled SA at a molecular ratio of 4:1, thus preparing HLA tetramer. […] T cells were incubated with HLA-A*2402-W10 or HLA-A*2402-HER2-63 on ice for 1 hour and then analyzed by flow cytometry.

Where no end group is shown, it is not given here.

Consider ALLPAVPSL [W10], for which, at HLA-A*0201 molecule, the “Binding assay data (−log Kd)” value is listed as 7.84. For the same sequence, in data set [1], the “Adverse event due to peptide immunotherapy” value is “no adverse event due to peptide immunotherapy was observed, except for an erythema and mild swelling at the site of immunization”; the “Creatinine (Cre) adverse event” value is on record as “Grade 2 increase of Cre”. In addition, the PSA result in data set [2] (patient KB07-003, prostate cancer, stable for about half a year) is on record as “less than 0.1”. Also, the “PSA after starting immunotherapy” value in data set [2] (patient KB07-005, prostate cancer) is reported as “around 0.04”. For the same sequence, in data set [3] (HLA-A*0201 binding peptides, T2 targets), the “Peptide-reactive cytolytic cells in PBMCs of patients” value was “contain cytolytic cells that recognize”. For the same sequence, the “Peptide-reactive cytolytic cells in PBMCs of patients” value in data set [3] (HLA-A*2402 binding peptides, FIG. 9a and b) is “cytolytic cells include those reactive”. Also, the “W10-specific CD8 positive T cells (HLA-A24-W10 tetramer staining)” value in data set [4] is “increased”.
